Experimental data: ChEMBL document CHEMBL1135328, “Structure-activity relationship of biaryl acylsulfonamide analogues on the human EP(3) prostanoid receptor” (Bioorg Med Chem Lett, 2002)

Assays:
[1] = target: T1, Prostaglandin E2 receptor EP1 subtype (Homo sapiens, UniProt P34995); experiment: Binding affinity at human Prostanoid EP1 receptor.
T1 sequence (P34995 whole entry): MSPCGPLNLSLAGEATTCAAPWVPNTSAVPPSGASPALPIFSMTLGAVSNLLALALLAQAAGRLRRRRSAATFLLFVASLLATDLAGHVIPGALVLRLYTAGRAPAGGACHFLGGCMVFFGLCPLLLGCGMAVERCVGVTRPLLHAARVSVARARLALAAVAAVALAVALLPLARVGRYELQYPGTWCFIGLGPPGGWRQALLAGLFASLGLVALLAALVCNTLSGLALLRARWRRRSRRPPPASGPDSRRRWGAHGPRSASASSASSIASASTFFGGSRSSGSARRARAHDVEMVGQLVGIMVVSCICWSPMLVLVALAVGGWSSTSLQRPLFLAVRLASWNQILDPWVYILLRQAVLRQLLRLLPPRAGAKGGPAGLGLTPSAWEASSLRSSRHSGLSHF

[2] = target: T2, Prostaglandin E2 receptor EP3 subtype (Homo sapiens, UniProt P43115); experiment: Binding affinity at human Prostanoid EP3 receptor.
T2 sequence (P43115 whole entry): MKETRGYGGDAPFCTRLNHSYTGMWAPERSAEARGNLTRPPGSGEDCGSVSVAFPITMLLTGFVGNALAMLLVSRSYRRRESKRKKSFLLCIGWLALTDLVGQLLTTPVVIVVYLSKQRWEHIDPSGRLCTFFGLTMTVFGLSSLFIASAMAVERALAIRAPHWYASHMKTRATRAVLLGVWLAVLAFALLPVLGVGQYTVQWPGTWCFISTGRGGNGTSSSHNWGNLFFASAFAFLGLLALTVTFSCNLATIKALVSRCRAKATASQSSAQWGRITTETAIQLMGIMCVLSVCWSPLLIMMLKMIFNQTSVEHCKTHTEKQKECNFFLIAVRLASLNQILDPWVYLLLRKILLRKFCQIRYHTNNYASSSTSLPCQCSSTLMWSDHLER

[3] = target: Prostaglandin E2 receptor EP4 subtype (Homo sapiens, UniProt P35408); experiment: Binding affinity at human Prostanoid EP4 receptor.
Prostaglandin E2 receptor EP4 subtype, sequence (P35408 whole entry): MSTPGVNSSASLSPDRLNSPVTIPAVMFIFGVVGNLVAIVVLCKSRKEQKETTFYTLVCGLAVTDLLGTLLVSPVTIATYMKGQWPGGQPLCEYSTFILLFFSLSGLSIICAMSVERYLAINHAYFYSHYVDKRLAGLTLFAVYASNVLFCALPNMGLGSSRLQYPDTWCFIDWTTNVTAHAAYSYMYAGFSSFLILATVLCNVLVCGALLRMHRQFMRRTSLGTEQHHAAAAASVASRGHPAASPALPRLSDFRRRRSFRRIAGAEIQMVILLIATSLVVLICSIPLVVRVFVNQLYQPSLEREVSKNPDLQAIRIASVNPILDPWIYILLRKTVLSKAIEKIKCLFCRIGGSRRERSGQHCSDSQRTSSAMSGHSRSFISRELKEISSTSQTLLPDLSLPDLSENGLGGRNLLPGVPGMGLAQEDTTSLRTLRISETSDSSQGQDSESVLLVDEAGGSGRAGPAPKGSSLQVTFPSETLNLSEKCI

[4] = target: Prostaglandin E2 receptor EP2 subtype (Homo sapiens, UniProt P43116); experiment: Binding affinity at human Prostanoid EP2 receptor.
Prostaglandin E2 receptor EP2 subtype, sequence (P43116 whole entry): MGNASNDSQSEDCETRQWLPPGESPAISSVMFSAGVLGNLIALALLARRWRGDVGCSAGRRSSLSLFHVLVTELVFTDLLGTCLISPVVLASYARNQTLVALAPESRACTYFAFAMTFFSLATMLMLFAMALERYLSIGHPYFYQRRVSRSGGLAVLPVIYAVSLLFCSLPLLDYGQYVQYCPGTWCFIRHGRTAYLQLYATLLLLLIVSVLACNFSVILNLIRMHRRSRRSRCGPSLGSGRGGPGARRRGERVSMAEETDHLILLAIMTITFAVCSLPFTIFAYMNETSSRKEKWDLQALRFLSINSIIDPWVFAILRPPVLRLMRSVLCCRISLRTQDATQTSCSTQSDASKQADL

[5] = target: T3, Prostaglandin D2 receptor (Homo sapiens, UniProt Q13258); experiment: Inhibitory constant against Prostanoid DP receptor
T3 sequence (Q13258 whole entry): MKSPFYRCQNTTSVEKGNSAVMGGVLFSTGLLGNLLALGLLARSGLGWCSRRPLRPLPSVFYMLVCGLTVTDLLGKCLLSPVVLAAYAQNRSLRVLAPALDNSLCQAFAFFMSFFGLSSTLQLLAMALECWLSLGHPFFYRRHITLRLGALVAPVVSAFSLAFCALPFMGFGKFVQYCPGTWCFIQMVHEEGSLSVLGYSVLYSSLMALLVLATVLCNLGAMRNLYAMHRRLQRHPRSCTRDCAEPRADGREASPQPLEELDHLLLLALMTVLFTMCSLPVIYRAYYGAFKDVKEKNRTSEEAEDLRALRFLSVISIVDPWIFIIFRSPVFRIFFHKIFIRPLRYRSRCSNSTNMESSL

[6] = target: Prostacyclin receptor (Homo sapiens, UniProt P43119); experiment: Inhibitory constant against Prostanoid IP receptor
Prostacyclin receptor, sequence (P43119 whole entry): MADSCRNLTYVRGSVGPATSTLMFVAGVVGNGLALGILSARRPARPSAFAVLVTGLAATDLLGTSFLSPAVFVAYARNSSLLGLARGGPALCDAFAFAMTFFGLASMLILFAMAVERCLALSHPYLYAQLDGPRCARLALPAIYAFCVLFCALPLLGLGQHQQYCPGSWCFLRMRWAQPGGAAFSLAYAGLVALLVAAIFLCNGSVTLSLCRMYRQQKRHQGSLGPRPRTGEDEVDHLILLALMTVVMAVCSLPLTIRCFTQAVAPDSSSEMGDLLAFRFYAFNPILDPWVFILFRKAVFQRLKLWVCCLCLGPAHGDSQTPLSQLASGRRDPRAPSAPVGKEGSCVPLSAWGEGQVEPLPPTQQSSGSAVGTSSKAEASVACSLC

[7] = target: Prostaglandin F2-alpha receptor (Homo sapiens, UniProt P43088); experiment: Inhibitory constant against Prostanoid FP receptor
Prostaglandin F2-alpha receptor, sequence (P43088 whole entry): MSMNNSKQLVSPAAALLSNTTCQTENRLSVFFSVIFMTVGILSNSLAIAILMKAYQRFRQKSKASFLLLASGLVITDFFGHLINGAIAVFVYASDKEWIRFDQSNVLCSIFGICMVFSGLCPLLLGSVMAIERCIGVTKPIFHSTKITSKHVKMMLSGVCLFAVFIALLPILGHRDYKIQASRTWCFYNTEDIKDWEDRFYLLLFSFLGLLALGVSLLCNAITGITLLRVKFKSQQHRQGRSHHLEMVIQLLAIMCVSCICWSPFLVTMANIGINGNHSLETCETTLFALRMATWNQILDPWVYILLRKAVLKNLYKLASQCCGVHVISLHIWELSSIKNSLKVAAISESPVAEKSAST

Row | Structure (SMILES) | Ki [1] [nM] | Ki [2] [nM] | Ki [3] [nM] | Ki [4] [nM] | Ki [5] [nM] | Ki [6] [nM] | Ki [7] [nM]
1 | c1ccc(CCSCc2ccc(-c3ccccc3CCc3nnn[nH]3)cc2)cc1 | 4900 | 1000 | 2600 | 63 | – | – | –
2 | O=S(=O)(CCc1ccccc1-c1ccc(CSCCc2ccccc2)cc1)NS(=O)(=O)c1cccs1 | 7500 | 610 | 1100 | 3000 | – | – | –
3 | O=C(NS(=O)(=O)CCc1ccccc1-c1ccc(CSCCc2ccccc2)cc1)c1cccs1 | 2800 | 480 | 690 | 2500 | – | – | –
4 | Cc1cccc(OCCCOc2ccc(-c3ccccc3CC(C)C(=O)NS(=O)(=O)c3cccs3)cc2)c1 (configuration not stated) | 5800 | 340 | 1100 | 2900 | – | – | –
5 | O=C(/C=C/c1ccccc1-c1cccc(/C=C/c2ccc3ccc(Cl)cc3n2)c1)NS(=O)(=O)c1cccs1 | 41000 | 110 | 28000 | 70000 | – | – | –
6 | CCCCc1nn(-c2ccccc2C(F)(F)F)c(=O)n1Cc1ccc(-c2ccccc2S(=O)(=O)NC(=O)c2cccs2)cc1 | > 10000 | 7000 | 46 | > 10000 | – | – | –
7 | CSc1cccc(-c2ccccc2CCC(=O)NS(=O)(=O)c2cccs2)c1 | 27000 | 240 | 25000 | 31000 | – | – | –
8 | O=C(CCc1ccccc1-c1ccccc1CSCCc1ccccc1)NS(=O)(=O)c1cccs1 | 83 | 510 | 1500 | 3800 | – | – | –
9 | O=C(CCCc1ccccc1-c1ccc(CSCCc2ccccc2)cc1)NS(=O)(=O)c1cccs1 | 3000 | 200 | 700 | 1800 | – | – | –
10 | O=C(CCc1ccccc1-c1cccc(/C=C/c2ccc3ccc(Cl)cc3n2)c1)NS(=O)(=O)c1cccs1 | 49000 | 120 | 19000 | 16000 | – | – | –
11 | O=C(CCc1ccccc1-c1ccc(CSCCc2ccccc2)cc1)NS(=O)(=O)c1cccs1 | 1700 | 46 | 1100 | 2700 | – | – | –
12 | O=C(O)CCc1ccccc1-c1ccc(CSCCc2ccccc2)cc1 | 8600 | 740 | 4400 | 140 | – | – | –
13 | CS(=O)(=O)c1cccc(-c2ccccc2CCC(=O)NS(=O)(=O)c2cccs2)c1 | > 100000 | 5900 | > 100000 | > 100000 | – | – | –
14 | O=C(Cc1ccccc1-c1ccc(CSCCc2ccccc2)cc1)NS(=O)(=O)c1cccs1 | 3700 | 330 | 850 | 590 | – | – | –
15 | O=C(CCc1ccccc1-c1cccc(CSCCc2ccccc2)c1)NS(=O)(=O)c1cccs1 | 820 | 27 | 1000 | 2000 | – | – | –
16 | Cc1cccc(OCCCOc2ccc(-c3ccccc3CCC(=O)NS(=O)(=O)c3cccs3)cc2)c1 | 4600 | 53 | 1600 | 2900 | – | – | –
17 | O=C(CCc1ccccc1-c1ccc(OCCCOc2cccc(CSCCc3ccccc3)c2)cc1)NS(=O)(=O)c1cccs1 | 13000 | 16 | 7100 | 4900 | – | – | –
18 | O=C(/C=C/c1ccccc1-c1ccc(Cl)c(Cl)c1)NS(=O)(=O)c1cccs1 | 8200 | 25 | 3700 | 27000 | 830 | 7300 | 17000
19 | Cc1cccc(OCCCOc2ccc(-c3ccccc3CNC(=O)NS(=O)(=O)c3cccs3)cc2)c1 | 15000 | 150 | 2900 | 8600 | – | – | –
20 | Cc1cccc(OCCCOc2ccc(-c3ccccc3COC(=O)NS(=O)(=O)c3cccs3)cc2)c1 | 2800 | 120 | 730 | 2100 | – | – | –
21 | Cc1cccc(OCCCOc2ccc(-c3ccccc3CC(C)(C)C(=O)NS(=O)(=O)c3cccs3)cc2)c1 | 1800 | 440 | 1000 | 2900 | – | – | –
